Experiments:
[1] = test system: Naive CD4+ CD25− FoxP3− cells; test: Treg cell differentiation conditions: Foxp3 and α4β7 expression; format: cell-based, mouse
Procedure: To determine whether a RXR agonist can induce Treg cell differentiation, the ability of an RXR agonist to promote Treg cell differentiation under Treg cell differentiation conditions was assessed by monitoring Foxp3 and α4β7 expression. Naive CD4^+ CD25^− FoxP3^− cells were purified from a Foxp3-GFP mouse using flow cytometry by sorting and isolating based upon a GFP^− phenotype. These cells were then cultured under Treg cell differentiation conditions by treating the cells with αCD3 and αCD28 polyclonal antibodies in the presence of IL-2 and TGF-β. […] FIG. 1A. […] FIG. 1B.

[2] = test system: Naive CD4+ CD25− FoxP3− cells; test: Th17 cell differentiation conditions: Foxp3 and IL-17A expression; format: cell-based, mouse; details: 0, 1, 10, 100 nM, as concentration increased
Procedure: To determine whether a RXR agonist can regulate T cell differentiation, the ability of an RXR agonist to promote Treg cell differentiation and inhibit Th17 cell differentiation under Th17 cell differentiation conditions was assessed by monitoring Foxp3 and IL-17A expression. Naive CD4^+ CD25^− FoxP3^− cells were purified from a Foxp3-GFP mouse using flow cytometry by sorting and isolating based upon a GFP^− phenotype. […] See, e.g., Elias, et al., Retinoic Acid Inhibits Th17 Polarization and Enhances FoxP3 Expression through a Stat-3/Stat-5 Independent Pathway, Blood 111(3): […] (2008). […] FIG. 2A. […] FIG. 2B.

RXRα = molecular target: T1, RXRα (Homo sapiens, UniProt P19793); test: RXR homodimer transactivation assay in CV-1 cells (RXRE-tk-Luc); format: cell-based; details: 20 hours, luciferase
T1 sequence (P19793 1-462): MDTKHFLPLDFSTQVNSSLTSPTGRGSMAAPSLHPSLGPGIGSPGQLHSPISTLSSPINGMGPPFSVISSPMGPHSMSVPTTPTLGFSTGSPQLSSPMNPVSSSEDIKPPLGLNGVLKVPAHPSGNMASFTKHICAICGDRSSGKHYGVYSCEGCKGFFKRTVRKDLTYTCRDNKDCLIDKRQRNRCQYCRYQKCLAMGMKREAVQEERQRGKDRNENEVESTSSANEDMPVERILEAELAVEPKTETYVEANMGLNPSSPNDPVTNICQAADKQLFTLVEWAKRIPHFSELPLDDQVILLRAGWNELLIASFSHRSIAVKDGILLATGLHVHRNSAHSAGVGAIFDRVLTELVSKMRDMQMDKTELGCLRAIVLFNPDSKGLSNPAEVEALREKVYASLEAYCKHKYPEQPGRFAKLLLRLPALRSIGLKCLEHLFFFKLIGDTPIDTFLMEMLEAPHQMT
Excerpt: For transactivation assays assessing RXR homodimer signaling, CV-1 cells were transfected with 1) an expression construct including a full length RXRα, RXRβ, or RXRγ; and 2) a rCRBPII/RXRE-tk-Luc reporter construct that included RXR homodimer-specific RXRE/DR1 responsive element linked to a luciferase gene. For transactivation assays assessing RAR/RXR heterodimer signaling, CV-1 cells were transfected with 1) an expression construct comprising a fusion protein including an estrogen receptor (ER) DNA binding domain linked to the ligand binding domain of RARα, RARβ, or RARγ and 2) a ERE-tk-Luc reporter construct that included an estrogen receptor responsive element linked to a luciferase gene. […] Data are mean values±SE from five independent experiments.

RXRγ = molecular target: T2, RXRγ (Homo sapiens, UniProt P48443); test: as above; format: cell-based
T2 construct: an expression construct including a full length RXRα, RXRβ, or RXRγ; expressed in transfected cells; host or cells: CV-1 cells
T2 sequence (P48443 1-463): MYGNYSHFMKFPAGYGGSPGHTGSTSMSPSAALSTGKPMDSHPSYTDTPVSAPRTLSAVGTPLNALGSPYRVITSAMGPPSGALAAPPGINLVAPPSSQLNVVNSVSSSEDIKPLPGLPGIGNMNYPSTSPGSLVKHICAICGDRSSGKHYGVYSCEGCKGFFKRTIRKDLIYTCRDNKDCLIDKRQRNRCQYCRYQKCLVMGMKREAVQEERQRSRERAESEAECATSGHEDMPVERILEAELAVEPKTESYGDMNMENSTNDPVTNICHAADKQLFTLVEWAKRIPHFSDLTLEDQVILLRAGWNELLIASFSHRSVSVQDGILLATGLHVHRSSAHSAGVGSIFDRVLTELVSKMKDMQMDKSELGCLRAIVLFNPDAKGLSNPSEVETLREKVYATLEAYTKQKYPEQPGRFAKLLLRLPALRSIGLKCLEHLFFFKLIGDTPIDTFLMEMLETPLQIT
Procedure: To determine whether a RXR agonist can mediate its effects via an RXRα receptor homodimers, RXRβ receptor homodimers, RXRγ receptor homodimers, or any combination thereof, or the corresponding RAR/RXR heterodimers, receptor-mediated transactivation assays were performed. […] Data are mean values±SE from five independent experiments.

RXRs and RARs = test: Functional transactivation assays, RXRs compared with RARs; format: cell-based
Procedure: To determine whether a RXR agonist can mediate its effects via an RXRα receptor homodimers, RXRβ receptor homodimers, RXRγ receptor homodimers, or any combination thereof, or the corresponding RAR/RXR heterodimers, receptor-mediated transactivation assays were performed. For transactivation assays assessing RXR homodimer signaling, CV-1 cells were transfected with 1) an expression construct including a full length RXRα, RXRβ, or RXRγ; and 2) a rCRBPII/RXRE-tk-Luc reporter construct that included RXR homodimer-specific RXRE/DR1 responsive element linked to a luciferase gene. For transactivation assays assessing RAR/RXR heterodimer signaling, CV-1 cells were transfected with 1) an expression construct comprising a fusion protein including an estrogen receptor (ER) DNA binding domain linked to the ligand binding domain of RARα, RARβ, or RARγ and 2) a ERE-tk-Luc reporter construct that included an estrogen receptor responsive element linked to a luciferase gene. The ER-RAR fusion proteins provided an accurate readout of only the transfected ER-RAR. […] Data are mean values±SE from five independent experiments.

LXR/RXR = test: Permissive RXR heterodimer transactivation; format: cell-based; details: appropriate receptor and reporter constructs
Excerpt: (§1) This difference represents >2,000-fold selectivity for RXRs over RARs in functional transactivation assays. […] FIG. 4. […] In this regard, RXR agonist 194204 is distinct from other RXR agonists.

PPAR/RXR = test: Permissive RXR heterodimer transactivation; format: cell-based; details: appropriate receptor and reporter constructs
Excerpt: as §1

FXR/RXR = test: Permissive RXR heterodimer transactivation; format: cell-based; details: appropriate receptor and reporter constructs
[3] = test system: experimental autoimmune encephalomyelitis (EAE); test: EAE in C57BL/6 (B6) mice (MOG peptide); format: in vivo; details: 50 ug i.p. every other day from day 7, FIG. 5
Procedure: Mice were also given 200 ng of pertussis toxin in PBS administered by inter-peritoneal (i.p.) injection on the same day as MOG emulsion injection (day 0) and 2 days later (day 2). […] Mice were scored using the following scale: 0—Mice have no disease, 1—Mice have distal limp tail or rear leg weakness (paresis), 1.5—Mice have distal limp tail and rear leg weakness, 2—Mice have complete limp tail and rear leg weakness, 2.5—Mice have complete limp tail and weakness in both rear legs, 3—Mice have complete limp tail and paralysis in both rear legs, 3.5—Mice have complete limp tail, paralysis in both rear legs, and forelimb weakness. Mice receiving a score of 3.5 were immediately euthanized.

[4] = test system: CNS infiltrating leukocytes; test: CNS infiltrating cells in EAE B6 mice (FACS); format: in vivo, C57BL/6 (B6) mice; details: day 20, versus vehicle control, FIG. 6
Procedure: To determine whether a RXR agonist can reduce central nervous system (CNS) infiltrating cells, C57BL/6 (B6) mice were treated as described in Example 6. On day 20 after immunization, mice were sacrificed and perfused with phosphate buffered saline (PBS). Brain and spinal cord tissue was isolated, digested with DNase and Liberase DL (Roche Diagnostics, Indianapolis, Ind.) for 30 minutes, and homogenized through 70 micron nylon mesh filters. Resulting cells were placed over a Percoll gradient to remove myelin. The remaining cells (microglia and CNS infiltrating cells) were counted, stained for molecules of interest, and run on a flow cytometer. Based on the frequencies obtained by FACS of these cell populations, total cell numbers of CNS infiltrating leukocytes expressing CD45, including CD4^+ T cells and CD11c^+ CD11b^+ myeloid dendritic cells (DC), were calculated.

[5] = test system: experimental autoimmune encephalomyelitis (EAE); test: EAE in SJL mice (PLP peptide); format: in vivo
Procedure: To determine whether a RXR agonist can attenuate multiple sclerosis, SJL mice were immunized to induce EAE by s.c. injection at the base of their spine with 200 uL of adjuvant containing 200 ug proteolipid proteins (139-151) (PLP peptide; Peptides International, Louisville, Ky.) and 400 ug of non-viable M. tuberculosis H37 desiccate emulsified in a mixture of incomplete Freund's adjuvant and PBS. Mice were also given 150 ng of pertussis toxin in PBS i.p. on the same day as PLP emulsion injection and 2 days later. […] Mice were scored using the scale described in Example 6.

[6] = 50 ug i.p. every other day from day 7, FIG. 7

For `CC(/C=C/[C@@H]1C[C@]1(C)c1ccc2c(c1)C(C)(C)CCC2(C)C)=C\C(=O)O` [RXR agonist 194204, 3,7-dimethyl-6(S),7(S)-methano,7-[1,1,4,4-tetramethyl-1,2,3,4-tetrahydronaphth-7-yl]2(E),4(E) heptadienoic acid], the “Foxp3+ T cells induced” value ([1]; Treg conditions (αCD3, αCD28, IL-2, TGF-β), concentrations of 1 nM or higher, FIG. 1A) was about 100%, the α4β7 expression ([1]; Treg conditions, 0.1, 1.0, 10 nM, FIG. 1B) was “induced expression of α4β7” and the Foxp3 expression ([2]; FIG. 2A) was “Foxp3 expression increased”. For the same compound, the IL-17A expression ([2]; FIG. 2B) was “IL-17A expression decreased”, the “Efficacy (% of 1 μM 194204) RXRα” value (RXRα) was 100 % of 1 μM 194204 and the “Efficacy (% of 1 μM 194204) RXRγ” value (RXRγ) was 0.09 ± 0.01 100 % of 1 μM 194204. The “more potent in activating RXR receptors rather than RAR receptors” value (RXRs and RARs; FIG. 4) was > 1,000 fold, the “activity at RARs” value (RXRs and RARs; at ≥1 μM) was “minimal activity” and the “transactivation of permissive RXR heterodimer LXR/RXR” value (LXR/RXR) was “not to transactivate”. The “transactivation of permissive RXR heterodimer PPAR/RXR” value (PPAR/RXR) was “not to transactivate”, the “transactivation of permissive RXR heterodimer FXR/RXR” value (FXR/RXR) was “not to transactivate” and the “symptoms of EAE (disease severity score)” value [3] was “significantly reduces the symptoms of EAE”. For the same compound, the “time course of efficacy” value [3] was “observed after the first administration (day 7) and maintained throughout the course of the study (day 20)”, the “infiltration of CD4+ cells into the CNS” value [4] was “significant reduction” and the “infiltration of CD11c+ CD11b+ cells (myeloid DC) into the CNS” value [4] was “significant reduction”. The “symptoms of EAE (disease severity score)” value [5, 6] was “significantly reduces the symptoms of EAE”, the “time course of efficacy” value [5, 6] was “observed after the second administration (day 8) and maintained throughout the course of the study (day 14)” and the “Disease Incidence” value ([5]; 50 ug i.p. every other day from day 7, mice affected/group) was 4/6. For the same compound, the “Death from Disease” value ([5]; 50 ug i.p. every other day from day 7, mice/group) was 0/6 and the “Mean Maximum Score” value ([5]; 50 ug i.p. every other day from day 7, scale 0-3.5) was 1.5 ± 1.4.

— patent US11793781B2, “Autoimmune disorder treatment using RXR agonists” (Io Therapeutics, Inc., priority 2011, dated 2023)
